Experimental data from US11702422B2, “Imidazopyridazines as modulators of IL-17” (Janssen Pharmaceutica NV, priority 2020, dated 2023).

Assays:
[1] = target: IL-17A(FLAG-Tagged): IL-17RA(His-Tagged) (Homo sapiens, UniProt Q16552, K93Q); experiment: IL-17A(FLAG-Tagged): IL-17RA(His-Tagged) Binding Disruption Eu-HTRF Assay; conditions: IL-17A/IL-17RA binding disruption, simple average if tested more than once
Method in brief: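 IC50 comes from a one-site competition fit of the HTRF 665/620 nm ratio. Compound dilutions (2-fold, 22 points) were held 1 h rt with FLAG-tagged IL-17A dimer, then His-tagged IL-17RA plus Eu-cryptate anti-FLAG and D2 anti-His antibodies were added for 2 h rt.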

[2] = system: IL-17A-induced G-CSF production in human normal keratinocyte (NHK); experiment: NHK Assay: IL-17A-induced G-CSF production in human normal keratinocytes; type: cell-based; conditions: Homo sapiens, Keratinocyte, 24 h, adult normal human keratinocytes, IL-17A 5 ng/mL, simple average if tested more than once
Method in brief: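 Adult normal human keratinocytes were seeded at 3000-4000 cells/well. Recombinant human IL-17A was pre-incubated 1 h at rt with titrated compound, then added to cells (final 5 ng/mL IL-17A, 0.2% DMSO, 5% FBS) for 24 h at 37° C. Supernatant G-CSF was measured by HTRF against a standard curve to give IC50.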

Chain of UniProt Q16552 (Q16552 with tags, fused parts or gaps K93Q): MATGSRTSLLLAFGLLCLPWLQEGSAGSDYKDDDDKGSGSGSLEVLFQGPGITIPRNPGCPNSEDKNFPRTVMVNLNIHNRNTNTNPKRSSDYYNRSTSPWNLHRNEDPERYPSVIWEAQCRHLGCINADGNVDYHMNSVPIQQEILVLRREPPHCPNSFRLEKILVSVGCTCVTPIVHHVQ

| IC50 [1] [nM] | Structure (SMILES) | IC50 [2] [nM] |
| --- | --- | --- |
| 370 | Cc1nonc1C(=O)N[C@H](c1cn2ncc([C@H](NC(=O)CC(C)(C)C(F)F)C3CC3)cc2n1)C1CCC(F)(F)CC1 [Example 312, N—((S)-(7-((R)-Cyclopropyl(4,4-difluoro-3,3-dimethylbutanamido)methyl)imidazo[1,2-b]pyridazin-2-yl)(4,4-difluorocyclohexyl)methyl)-4-methyl-1,2,5-oxadiazole-3-carboxamide] | 3200 |
| 160 | CC(C)n1nccc1C(=O)N[C@H](c1cn2ncc([C@H](NC(=O)CC(C)(C)C(F)F)C3CC3)cc2n1)C1CCC(F)(F)CC1 [Example 313, N—((S)-(7-((R)-Cyclopropyl(4,4-difluoro-3,3-dimethylbutanamido)methyl)imidazo[1,2-b]pyridazin-2-yl)(4,4-difluorocyclohexyl)methyl)-1-isopropyl-1H-pyrazole-5-carboxamide] | 480 |
| 74 | CC(C)n1nccc1C(=O)N[C@@H](COC(C)(C)C(F)(F)F)c1cn2ncc([C@H](NC(=O)CC3CC(F)(F)C3)C3CC3)cc2n1 [Example 320, N—((R)-1-(7-((R)-Cyclopropyl(2-(3,3-difluorocyclobutyl)acetamido)methyl)imidazo[1,2-b]pyridazin-2-yl)-2-((1,1,1-trifluoro-2-methylpropan-2-yl)oxy)ethyl)-1-isopropyl-1H-pyrazole-5-carboxamide] | 62 |
| 17 | CC(C)(OC[C@H](NC(=O)c1nonc1C1CC1)c1cn2ncc([C@H](NC(=O)CC3CC(F)(F)C3)C3CC3)cc2n1)C(F)(F)F [Example 321, 4-Cyclopropyl-N—((R)-1-(7-((R)-cyclopropyl(2-(3,3-difluorocyclobutyl)acetamido)methyl)imidazo[1,2-b]pyridazin-2-yl)-2-((1,1,1-trifluoro-2-methylpropan-2-yl)oxy)ethyl)-1,2,5-oxadiazole-3-carboxamide] | 32 |
| 310 | CO[C@@H](C)[C@@H](NC(=O)CC1CC(F)(F)C1)c1cnn2cc([C@@H](NC(=O)c3ccnn3C(C)C)C3CCC(F)(F)CC3)nc2c1 [Example 322, N—((S)-(7-((1S,2S)-1-(2-(3,3-Difluorocyclobutyl)acetamido)-2-methoxypropyl)imidazo[1,2-b]pyridazin-2-yl)(4,4-difluorocyclohexyl)methyl)-1-isopropyl-1H-pyrazole-5-carboxamide] | 96 |
| 120 | CO[C@@H](C)[C@@H](NC(=O)CC1CC(F)(F)C1)c1cnn2cc([C@@H](NC(=O)c3nonc3C)C3CCC(F)(F)CC3)nc2c1 [Example 323, N—((S)-(7-((1S,2S)-1-(2-(3,3-Difluorocyclobutyl)acetamido)-2-methoxypropyl)imidazo[1,2-b]pyridazin-2-yl)(4,4-difluorocyclohexyl)methyl)-4-methyl-1,2,5-oxadiazole-3-carboxamide] | 670 |
| 120 | Cc1nonc1C(=O)N[C@H](c1cn2ncc([C@H](NC(=O)CCCC(F)F)C3CC3)cc2n1)C1CCC(F)(F)CC1 [Example 326, N—((S)-(7-((R)-Cyclopropyl(5,5-difluoropentanamido)methyl)imidazo[1,2-b]pyridazin-2-yl)(4,4-difluorocyclohexyl)methyl)-4-methyl-1,2,5-oxadiazole-3-carboxamide] | 1100 |
| 200 | Cc1nonc1C(=O)N[C@H](c1cn2ncc([C@H](NC(=O)COCC(F)(F)F)C3CC3)cc2n1)C1CCC(F)(F)CC1 [Example 327, N—((S)-(7-((R)-Cyclopropyl(2-(2,2,2-trifluoroethoxy)acetamido)methyl)imidazo[1,2-b]pyridazin-2-yl)(4,4-difluorocyclohexyl)methyl)-4-methyl-1,2,5-oxadiazole-3-carboxamide] | 890 |
| 2400 | Cc1nonc1C(=O)N[C@H](c1cn2ncc([C@H](NC(=O)C(C)(C)CC(F)F)C3CC3)cc2n1)C1CCC(F)(F)CC1 [Example 328, N—((S)-(7-((R)-Cyclopropyl(4,4-difluoro-2,2-dimethylbutanamido)methyl)imidazo[1,2-b]pyridazin-2-yl)(4,4-difluorocyclohexyl)methyl)-4-methyl-1,2,5-oxadiazole-3-carboxamide] | > 20000 |
| 180 | Cc1nonc1C(=O)N[C@H](c1cn2ncc([C@H](NC(=O)CO[C@@H](C)C(F)(F)F)C3CC3)cc2n1)C1CCC(F)(F)CC1 [Example 333, N—((S)-(7-((R)-Cyclopropyl(2-(((S)-1,1,1-trifluoropropan-2-yl)oxy)acetamido)methyl)imidazo[1,2-b]pyridazin-2-yl)(4,4-difluorocyclohexyl)methyl)-4-methyl-1,2,5-oxadiazole-3-carboxamide] | 620 |
| 360 | CCC(F)(F)CC(=O)N[C@@H](c1cnn2cc([C@@H](NC(=O)c3nonc3C)C3CCC(F)(F)CC3)nc2c1)C1CC1 [Example 338, N—((S)-(7-((R)-Cyclopropyl(3,3-difluoropentanamido)methyl)imidazo[1,2-b]pyridazin-2-yl)(4,4-difluorocyclohexyl)methyl)-4-methyl-1,2,5-oxadiazole-3-carboxamide] | 2000 |
| 77 | Cc1nonc1C(=O)N[C@H](c1cn2ncc([C@H](NC(=O)C(F)(F)CC3CC3)C3CC3)cc2n1)C1CCC(F)(F)CC1 [Example 339, N—((S)-(7-((R)-Cyclopropyl(3-cyclopropyl-2,2-difluoropropanamido)methyl)imidazo[1,2-b]pyridazin-2-yl)(4,4-difluorocyclohexyl)methyl)-4-methyl-1,2,5-oxadiazole-3-carboxamide] | 190 |

| Structure (SMILES) | IC50 [1] [nM] | IC50 [2] [nM] |
| --- | --- | --- |
| Cc1nonc1C(=O)N[C@H](c1cn2ncc([C@H](NC(=O)COC3CC(F)(F)C3)C3CC3)cc2n1)C1CCC(F)(F)CC1 [Example 308, N—((S)-(7-((R)-Cyclopropyl(2-(3,3-difluorocyclobutoxy)acetamido)methyl)imidazo[1,2-b]pyridazin-2-yl)(4,4-difluorocyclohexyl)methyl)-4-methyl-1,2,5-oxadiazole-3-carboxamide] | 200 | 1700 |
| CC(C)n1nccc1C(=O)N[C@H](c1cn2ncc([C@H](NC(=O)COC3CC(F)(F)C3)C3CC3)cc2n1)C1CCC(F)(F)CC1 [Example 309, N—((S)-(7-((R)-Cyclopropyl(2-(3,3-difluorocyclobutoxy)acetamido)methyl)imidazo[1,2-b]pyridazin-2-yl)(4,4-difluorocyclohexyl)methyl)-1-isopropyl-1H-pyrazole-5-carboxamide] | 100 | 290 |
| CC(C)n1nccc1C(=O)N[C@@H](COC(C)(C)C)c1cn2ncc([C@H](NC(=O)CC3CC(F)(F)C3)C3CC3)cc2n1 [Example 318, N—((R)-2-(tert-Butoxy)-1-(7-((R)-cyclopropyl(2-(3,3-difluorocyclobutyl)acetamido)methyl)imidazo[1,2-b]pyridazin-2-yl)ethyl)-1-isopropyl-1H-pyrazole-5-carboxamide] | 270 | 480 |
| CC(C)(C)OC[C@H](NC(=O)c1nonc1C1CC1)c1cn2ncc([C@H](NC(=O)CC3CC(F)(F)C3)C3CC3)cc2n1 [Example 319, N—((R)-2-(tert-Butoxy)-1-(7-((R)-cyclopropyl(2-(3,3-difluorocyclobutyl)acetamido)methyl)imidazo[1,2-b]pyridazin-2-yl)ethyl)-4-cyclopropyl-1,2,5-oxadiazole-3-carboxamide] | 66 | 330 |
